Structures are written as SMILES. Values after ≈ are worked out from the molar mass of the structure shown.

In patent publication US11613527B2, “Enzyme inhibitors” (KalVista Pharmaceuticals Limited, priority 2019, dated 2023) one finds IC50, Cmax and solubility data, which are given here for 8 compounds.

One data set concerns the target Human FXIa (Homo sapiens (Human), UniProt P03951). Put plainly: Determination of the % inhibition for FXIa (fluorogenic substrate Z-Gly-Pro-Arg-AFC; 40 μM or IC50). Type of data set: biochemical. Summed up: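 Human FXIa incubated at 25 °C with fluorogenic substrate Z-Gly-Pro-Arg-AFC and test compound at 40 μM for % inhibition, or a concentration series for IC50. Residual activity taken as initial rate from absorbance change at 410 nm.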

Another data set has as its target Human plasma kallikrein (Homo sapiens (Human), UniProt P03952). As to the kind of experiment: Determination of the IC50 for plasma kallikrein (fluorogenic substrate H-DPro-Phe-Arg-AFC). Format: biochemical. To be noted: class symbols A-D, read-out: IC50 (human PKal). Summed up: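 Enzyme from a commercial source was incubated at 25° C. with H-DPro-Phe-Arg-AFC substrate and a range of test compound concentrations. Residual activity was taken as the initial reaction rate, followed by absorbance change at 410 nm, and IC50 values were derived from it.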

The target in another data set is Human KLK1 (Homo sapiens (Human), UniProt P06870). Put plainly: Determination of the IC50 for KLK1 (fluorogenic substrate H-DVal-Leu-Arg-AFC). Type of data set: biochemical. The method, boiled down:
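Human KLK1 incubated at 25° C. with fluorogenic substrate H-DVal-Leu-Arg-AFC and a range of test compound concentrations. Residual activity taken as initial reaction rate from absorbance change at 410 nm; IC50 derived from these rates.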

Data set [1] can be described thus: Pharmacokinetics following a single oral dose in male Sprague-Dawley rats. Type of data set: in vivo. To be noted: rat, nominal 5 mg/kg in 10% DMSO/10% cremophor/80% SWFI, plasma. Here is the method:
Pharmacokinetic studies of the compounds in Table 14 were performed to assess the pharmacokinetics following a single oral dose in male Sprague-Dawley rats. Two rats were given a single po dose of 5 mL/kg of a nominal 1 mg/mL (5 mg/kg) composition of test compound in 10% DMSO/10% cremophor/80% SWFI vehicle. Following dosing, blood samples were collected over a period of […]. Sample times were 5, 15 and 30 minutes then 1, 2, 4, 6, 8 and 12 hours. Following collection, blood samples were centrifuged and the plasma fraction analysed for concentration of test compound by LCMS.

Data set [2] can be described thus: Solubility after 24 hrs in Fasted State Simulated Intestinal Fluid (FaSSIF). Format: physicochemical. To be noted: Fasted State Simulated Intestinal Fluid (FaSSIF), thermodynamic from solid, 24 hrs at 37° C., nominal concentration 1 mg/mL (as free base). The method, boiled down:
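Compound at nominal 1 mg/mL (as free base) in freshly prepared FaSSIF, shaken 24 h at 37 °C, ~500 rpm. After centrifugation at 15,000 g for 10 min at 37 °C, dissolved concentration measured by LCMS.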

Chain of Human FXIa (P03951 388-625): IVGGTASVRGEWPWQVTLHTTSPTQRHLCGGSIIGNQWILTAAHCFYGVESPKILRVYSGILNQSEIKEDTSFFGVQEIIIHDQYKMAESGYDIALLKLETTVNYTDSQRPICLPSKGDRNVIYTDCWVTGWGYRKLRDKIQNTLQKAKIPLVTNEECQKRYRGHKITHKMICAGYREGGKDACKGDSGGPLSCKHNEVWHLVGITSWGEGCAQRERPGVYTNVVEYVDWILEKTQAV
Chain of Human FXIa (P03951 19-387 partner): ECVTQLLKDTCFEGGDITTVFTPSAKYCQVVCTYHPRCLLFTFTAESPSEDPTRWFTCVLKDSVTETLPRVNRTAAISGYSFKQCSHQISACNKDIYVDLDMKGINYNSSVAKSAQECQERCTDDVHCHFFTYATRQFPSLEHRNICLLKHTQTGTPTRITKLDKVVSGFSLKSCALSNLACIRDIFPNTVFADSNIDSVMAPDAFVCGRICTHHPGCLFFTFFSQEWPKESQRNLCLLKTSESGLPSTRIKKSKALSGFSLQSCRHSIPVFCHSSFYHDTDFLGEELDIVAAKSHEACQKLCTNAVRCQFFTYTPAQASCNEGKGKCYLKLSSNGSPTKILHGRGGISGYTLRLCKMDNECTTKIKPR
Chain of Human plasma kallikrein (P03952 391-638): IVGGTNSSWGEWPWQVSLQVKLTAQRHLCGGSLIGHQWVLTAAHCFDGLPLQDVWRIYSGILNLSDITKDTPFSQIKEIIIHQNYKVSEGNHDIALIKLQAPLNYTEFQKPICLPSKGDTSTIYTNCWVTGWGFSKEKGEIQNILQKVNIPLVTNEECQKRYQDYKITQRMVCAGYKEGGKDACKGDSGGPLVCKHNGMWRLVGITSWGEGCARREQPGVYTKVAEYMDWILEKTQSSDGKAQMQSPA
Chain of Human plasma kallikrein (P03952 20-390 partner): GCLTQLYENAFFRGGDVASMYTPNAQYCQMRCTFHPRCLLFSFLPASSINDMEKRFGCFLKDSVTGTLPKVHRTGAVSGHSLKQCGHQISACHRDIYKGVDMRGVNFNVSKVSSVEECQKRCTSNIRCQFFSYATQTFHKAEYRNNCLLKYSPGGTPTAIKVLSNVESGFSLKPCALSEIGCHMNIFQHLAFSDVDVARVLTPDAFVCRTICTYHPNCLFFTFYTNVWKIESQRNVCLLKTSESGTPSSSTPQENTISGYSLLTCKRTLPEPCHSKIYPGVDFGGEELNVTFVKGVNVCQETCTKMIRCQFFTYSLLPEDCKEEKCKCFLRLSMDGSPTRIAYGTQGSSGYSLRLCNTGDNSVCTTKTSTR
Chain of Human KLK1 (P06870 25-262): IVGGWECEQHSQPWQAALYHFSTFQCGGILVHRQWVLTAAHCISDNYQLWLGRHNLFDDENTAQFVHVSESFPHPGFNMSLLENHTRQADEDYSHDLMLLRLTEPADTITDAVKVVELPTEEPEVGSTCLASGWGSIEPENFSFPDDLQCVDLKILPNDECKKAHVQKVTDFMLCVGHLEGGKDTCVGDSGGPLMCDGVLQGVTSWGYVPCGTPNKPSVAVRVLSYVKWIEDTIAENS

On to `COCc1nn(Cc2ccc3c(c2)CN(C)CC32CC2)cc1C(=O)NCc1c(-n2cc(C)nn2)ccc(OC)c1F` [Example 126, N-{[2-fluoro-3-methoxy-6-(4-methyl-1,2,3-triazol-1-yl)phenyl]methyl}-3-(methoxymethyl)-1-{2′-methyl-1′,3′-dihydrospiro[cyclopropane-1,4′-isoquinoline]-7′-ylmethyl}pyrazole-4-carboxamide], for which the IC50 was greater than 40 µM against Human FXIa, less than 0.01 µM at Human plasma kallikrein and greater than 40 µM on Human KLK1. The same compound had a Cmax in data set [1] of 63 ng/mL. In addition, the concentration in solution in data set [2] (solubility at 24 h) was 880 µg/mL (≈ 1570 µM).

With `CCN1CCc2cc(Cn3cc(C(=O)NCc4c(-n5cc(C)nn5)ccc(OC)c4F)c(COC)n3)ccc2C1` [Example 38, 1-[(2-ethyl-3,4-dihydro-1H-isoquinolin-6-yl)methyl]-N-{[2-fluoro-3-methoxy-6-(4-methyl-1,2,3-triazol-1-yl)phenyl]methyl}-3-(methoxymethyl)pyrazole-4-carboxamide], the IC50 against Human FXIa was greater than 40 µM; at Human plasma kallikrein, less than 0.01 µM; against Human KLK1 it was greater than 40 µM. The highest level in data set [1] (Cmax) was 51 ng/mL. The solubility at 24 h in data set [2] is 740 µg/mL (≈ 1350 µM).

For the compound `COCc1nn(Cc2ccc3c(c2)CN(C)C3)cc1C(=O)NCc1c(-n2cc(C)nn2)ccc(OC)c1F` [Example 54, N-{[2-fluoro-3-methoxy-6-(4-methyl-1,2,3-triazol-1-yl)phenyl]methyl}-3-(methoxymethyl)-1-[(2-methyl-1,3-dihydroisoindol-5-yl)methyl]pyrazole-4-carboxamide], the IC50 is greater than 4 µM on Human FXIa, less than 0.01 µM at Human plasma kallikrein and greater than 4 µM against Human KLK1. Also, the Cmax in data set [1] is 154 ng/mL. The compound further had a solubility at 24 h in data set [2] of 820 µg/mL (≈ 1580 µM).

`COCc1nn(Cc2ccc3c(c2)CCN(C(C)C)C3)cc1C(=O)NCc1c(-n2cc(C)nn2)ccc(OC)c1F` [Example 37, N-{[2-fluoro-3-methoxy-6-(4-methyl-1,2,3-triazol-1-yl)phenyl]methyl}-1-[(2-isopropyl-3,4-dihydro-1H-isoquinolin-6-yl)methyl]-3-(methoxymethyl)pyrazole-4-carboxamide]: the IC50 at Human FXIa was greater than 40 µM; on Human plasma kallikrein, less than 0.01 µM; against Human KLK1, greater than 40 µM. For the same compound, in data set [1], the Cmax was 38 ng/mL. The compound also gave a solubility at 24 h in data set [2] greater than 1000 µg/mL.

Turning to `COCc1nn(Cc2ccc3c(c2)CN(C)CC3)cc1C(=O)NCc1c(-n2cc(C(F)F)nn2)ccc(OC)c1F` [Example 1, N-({6-[4-(difluoromethyl)-1,2,3-triazol-1-yl]-2-fluoro-3-methoxyphenyl}methyl)-3-(methoxymethyl)-1-[(2-methyl-3,4-dihydro-1H-isoquinolin-7-yl)methyl]pyrazole-4-carboxamide], the IC50 is greater than 40 µM at Human FXIa, less than 0.01 µM at Human plasma kallikrein and greater than 40 µM against Human KLK1. For the same compound, the Cmax in data set [1] was determined as 88 ng/mL. Further, in data set [2], the concentration in solution (solubility at 24 h) was 930 µg/mL (≈ 1630 µM).

Regarding `COCc1nn(Cc2ccc3c(c2)CN(C(C)C)CC3)cc1C(=O)NCc1c(-n2ccc(C#N)n2)ccc(OC)c1F` [Example 24, N-{[6-(3-cyanopyrazol-1-yl)-2-fluoro-3-methoxyphenyl]methyl}-1-[(2-isopropyl-3,4-dihydro-1H-isoquinolin-7-yl)methyl]-3-(methoxymethyl)pyrazole-4-carboxamide], the figures for the IC50 against Human FXIa, at Human plasma kallikrein and on Human KLK1 were 23.8 µM, less than 0.01 µM and greater than 40 µM, respectively. In addition, the concentration in data set [1] peaked (Cmax) at 24 ng/mL. This compound also showed a solubility at 24 h in data set [2] of 730 µg/mL (≈ 1280 µM).

As to `COCc1nn(Cc2ccc3c(c2)CCN(C(C)C)C3)cc1C(=O)NCc1c(-n2ccc(C#N)n2)ccc(OC)c1F` [Example 46, N-{[6-(3-cyanopyrazol-1-yl)-2-fluoro-3-methoxyphenyl]methyl}-1-[(2-isopropyl-3,4-dihydro-1H-isoquinolin-6-yl)methyl]-3-(methoxymethyl)pyrazole-4-carboxamide], the IC50 is greater than 40 µM against Human FXIa, less than 0.01 µM on Human plasma kallikrein and greater than 40 µM on Human KLK1. The Cmax in data set [1] came to 34 ng/mL. This compound also registered a solubility at 24 h in data set [2] greater than 1000 µg/mL.

On to `COCc1nn(Cc2ccc3c(c2)CN(C(C)C)CC3)cc1C(=O)NCc1c(-n2cnc(C(F)F)n2)ccc(OC)c1F` [Example 23, N-({6-[3-(difluoromethyl)-1,2,4-triazol-1-yl]-2-fluoro-3-methoxyphenyl}methyl)-1-[(2-isopropyl-3,4-dihydro-1H-isoquinolin-7-yl)methyl]-3-(methoxymethyl)pyrazole-4-carboxamide], for which the values for the IC50 on Human FXIa, at Human plasma kallikrein and against Human KLK1 were greater than 40 µM, less than 0.01 µM and greater than 40 µM, respectively. Moreover, the concentration in data set [1] peaked (Cmax) at 20 ng/mL. In addition, the concentration in solution in data set [2] (solubility at 24 h) came to 870 µg/mL (≈ 1460 µM).

A word on the IC50: it is the point on the concentration scale where inhibition reaches its midpoint. What is called Cmax is the highest concentration seen after dosing. One may read the solubility as the concentration that dissolves in the medium under given conditions. Low values mean little dissolved substance, high ones much dissolved substance.
